Experimental data: ChEMBL document CHEMBL1148032, “Hexaprenoid hydroquinones, novel inhibitors of the reverse transcriptase of human immunodeficiency virus type 1” (J Nat Prod, 1993)

Experiments:
[1] = target: T1, Human immunodeficiency virus type 1 reverse transcriptase (Human immunodeficiency virus 1, UniProt Q72547); test: (§1) Inhibition of DNA dependent DNA polymerase activity of HIV1 BH10 recombinant reverse transcriptase p66/p51 assessed as residual enzyme activity
[2] = target: Human immunodeficiency virus type 1 reverse transcriptase (Human immunodeficiency virus 1) (UniProt Q72547); test: as §1
[3] = target: T1, Human immunodeficiency virus type 1 reverse transcriptase; test: (§2) Inhibition of RNA dependent DNA polymerase activity of HIV1 BH10 recombinant reverse transcriptase p66/p51 assessed as residual enzyme activity by poly(rA)n.oligo(dT)12-18-directed incorporation of [3H]dTTP
[4] = target: Human immunodeficiency virus type 1 reverse transcriptase (Human immunodeficiency virus 1) (UniProt Q72547); test: as §2
[5] = target: T1, Human immunodeficiency virus type 1 reverse transcriptase; test: Inhibition of RNase H activity of HIV1 BH10 recombinant reverse transcriptase p66/p51 assessed as residual enzyme activity […]

Row | SMILES | IC50 [1] [µM] | Inhibition [2] [µM] | IC50 [3] [µM] | Inhibition [4] [µM] | IC50 [5] [µM]
1 | CC1(C)CCC[C@]2(C)OC3CC[C@](C)(C4CC[C@]5(C)C4CC[C@]4(C)c6c(OS(=O)(=O)O)ccc(OS(=O)(=O)O)c6CC54)[C@]3(C)CCC12 (stereo not given in full) [TOXICOL A] | 2.7 | 5.2 | 3.1 | 6.5 | > 250
2 | CC1(C)CCC[C@]2(C)OC3CC[C@](C)(C4CC[C@]5(C)C4CC[C@]4(C)c6c(O)ccc(O)c6CC54)[C@]3(C)CCC12 (stereo not given in full) [TOXICOL B] | 8.2 | 56.2 | 3.7 | 11.1 | > 250
3 | C[C@@H]1CC=C2[C@@H](CCC[C@@]2(C)CC[C@@]2(C)C3=CCCC(C)(C)[C@H]3CC[C@@H]2C)[C@]1(C)Cc1cc(OS(=O)(=O)O)ccc1OS(=O)(=O)O [TOXIUSOL SODIUM] | 6.6 | 41.6 | 1.5 | 4.6 | > 250

Other lines, results leading:

Row | IC50 [1] [µM] | Inhibition [2] [µM] | IC50 [3] [µM] | Inhibition [4] [µM] | IC50 [5] [µM] | SMILES
4 | 1.4 | 14.7 | 2.5 | 18.1 | > 250 | CC1=C(Cc2cc(O)ccc2O)[C@]2(C)CCC[C@@](C)(CC[C@@]3(O)[C@H](C)CC[C@@H]4OC(C)(C)CCC[C@@]43C)[C@H]2CC1
5 | 4.2 | 44.4 | 2.8 | 11.1 | > 250 | C[C@@H]1CC=C2[C@@H](CCC[C@@]2(C)CC[C@@]2(C)C3=CCCC(C)(C)[C@H]3CC[C@@H]2C)[C@]1(C)Cc1cc(O)ccc1O
6 | 4.5 | 54.5 | 13.2 | 28.6 | > 250 | CC1(C)CCC[C@]2(C)OC3CC[C@](C)(C4CC[C@]5(C)C4CC[C@]4(C)C6=C(CC54)C(=O)C=CC6=O)[C@]3(C)CCC12 (stereo not given in full)
7 | 6.7 | 40 | 8.5 | 21.2 | > 250 | CC(=O)CC[C@@H]1[C@](C)(CC[C@@]2(O)[C@H](C)CC[C@@H]3OC(C)(C)CCC[C@@]32C)CCC[C@@]1(C)C(=O)Cc1cc(OS(=O)(=O)O)ccc1OS(=O)(=O)O [SHAAGROCKOL B]
8 | 0.8 | 5 | 3.3 | 9.3 | > 250 | CC1=C(Cc2cc(OS(=O)(=O)O)ccc2OS(=O)(=O)O)[C@]2(C)CCC[C@@](C)(CC[C@@]3(O)[C@H](C)CC[C@@H]4OC(C)(C)CCC[C@@]43C)[C@H]2CC1 [SHAAGROCKOL C]
